Source: US5350765A, “Ether-containing inhibitors of 5-lipoxygenase” (Abbott Laboratories, priority 1993, dated 1994)

Biological target: T1, 5-Lipoxygenase (Homo sapiens, UniProt P09917)
T1 construct: endogenous in cells; host or cells: human heparinized whole blood (blood leukocytes), stimulated with calcium ionophore A23187
T1 sequence (P09917 1-674): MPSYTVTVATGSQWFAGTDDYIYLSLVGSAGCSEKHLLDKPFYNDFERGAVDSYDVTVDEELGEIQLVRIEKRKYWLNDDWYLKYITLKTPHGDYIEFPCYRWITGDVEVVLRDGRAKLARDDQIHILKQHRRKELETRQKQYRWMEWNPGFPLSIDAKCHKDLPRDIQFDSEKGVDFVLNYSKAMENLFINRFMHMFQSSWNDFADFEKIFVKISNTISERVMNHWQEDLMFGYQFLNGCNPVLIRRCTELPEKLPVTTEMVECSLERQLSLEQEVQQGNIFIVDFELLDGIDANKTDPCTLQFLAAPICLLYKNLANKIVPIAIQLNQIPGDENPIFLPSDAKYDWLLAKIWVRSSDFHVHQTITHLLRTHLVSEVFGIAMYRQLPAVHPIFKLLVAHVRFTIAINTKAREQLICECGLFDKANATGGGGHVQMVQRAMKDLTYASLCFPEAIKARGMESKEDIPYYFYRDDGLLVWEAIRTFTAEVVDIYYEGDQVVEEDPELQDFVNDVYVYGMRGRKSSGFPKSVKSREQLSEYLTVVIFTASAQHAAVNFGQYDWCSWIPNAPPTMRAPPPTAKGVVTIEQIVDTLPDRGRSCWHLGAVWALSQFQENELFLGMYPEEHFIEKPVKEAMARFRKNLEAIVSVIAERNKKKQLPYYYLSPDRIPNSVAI
Assay: Inhibition of calcium ionophore-induced LTB4 biosynthesis in human whole blood
Format: cell-based
Details: A23187 8.3 μM; for IC50: human heparinized whole blood, 15 min preincubation at 37° C., 30 min, LTB4 by radioimmunoassay, read-out: IC50, in vitro inhibitory potency against 5-lipoxygenase from stimulated LTB4 formation in human whole blood
Experimental: Inhibition of leukotriene biosynthesis was evaluated in an assay, involving calcium ionophore-induced LTB4 biosynthesis expressed human whole blood. Human heparinized whole blood was preincubated with test compounds or vehicle for 15 min at 37° C. followed by calcium ionophore A23187 challenge (final concentration of 8.3 μM) and the reaction terminated after 30 min by adding two volumes of methanol containing prostaglandin B2 as an internal recovery standard. The methanol extract was analyzed for LTB4 using a commercially available radioimmunoassay.

[1] = human whole blood, read-out: % inhibition of stimulated LTB4 formation in human whole blood

Row | IC50 [nM] | inhibition at 12.5 µM [1] [%] | SMILES | also measured
1 | 3800 |  | COC1(C#CCOCc2ccc3ccccc3c2)CCOCC1 [Example 1, 4-methoxy-4-[3-((napth-2-yl)methoxy)-prop-1-ynyl]tetrahydropyran] | 
2 |  | 95 | COC1(C#CC(C)OCc2ccc3ccccc3c2)CCOCC1 (centres unmarked) [Example 2, 4-methoxy-4-[3-methyl-3-(((napth-2yl)methoxy))-prop-1-ynyl]tetrahydropyran] | 
3 | 700 |  | COC1(/C=C/COCc2ccc3ccccc3c2)CCOCC1 [Example 3] | 
4 |  | 99 | COC1(/C=C/C(C)OCc2ccc3ccccc3c2)CCOCC1 (stereo not drawn) [Example 4, 4-methoxy-4-[3-methyl-3-((napth-2yl)methoxy)- trans-prop-1-enyl]tetrahydropyran] | 
5 | 1500 |  | COC1(CCCOCc2ccc3ccccc3c2)CCOCC1 [Example 5, 4-methoxy-4-[3-((napth-2yl)methoxy)-prop-1-yl]tetrahydropyran] | 
6 |  |  | COC1(/C=C/COCc2ccc3c(ccc(=O)n3C)c2)CCOCC1 [Example 6, 4-methoxy-4-[3-((1,2-dihydro-1-methyl-2-oxoquinolin-6-yl)methoxy)-trans-prop-1-enyl]tetrahydropyran] | inhibition at 0.39 µM [1]: 51%
7 |  | 11 | COC1(/C=C/COCc2ccc(-c3ccccc3)cc2)CCOCC1 [Example 8, 4-methoxy-4-[3-((4-phenylphen-1-yl)methoxy)-trans-prop-1-enyl]tetrahydropyran] | 
8 |  |  | COC1(/C=C/CSc2ccc3ccccc3c2)CCOCC1 [Example 19, 4-methoxy-4-[3-(napth-2-ylthioxy)-trans-prop-1-enyl]tetrahydropyran] | inhibition at 0.1 µM (at 0.10 μM, human whole blood, read-out: % inhibition of stimulated LTB4 formation in human whole blood): 34%
9 | 260 |  | COC1(/C=C/C(=O)NCc2ccc3ccccc3c2)CCOCC1 [Example 20, 3-(4-methoxytetrahydropyran-4-yl)-N-((napth-2-yl)methyl)-trans-propionyl amide] | 
10 |  |  | COC1(/C=C/C(=O)NCc2ccc3c(ccc(=O)n3C)c2)CCOCC1 [Example 21] | inhibition at 0.39 µM [1]: 50%
11 |  | 18 | COC1(/C=C/COCC#Cc2ccccn2)CCOCC1 [Example 22, 4-methoxy-4-[3-((2-(pyrid-2-yl)ethynyl)methoxy)-trans-propen-1-yl]tetrahydropyran] | 
